Calls of active or inactive are those of the source. The rule behind the calls is not given here.

The subject of data set [1] is HT-1080. Put plainly: Effect on Akt level in human HT1080 cells assessed as Akt level at 10 uM incubated for 24 hrs by immunoblot assay (reference value: 1). Format: cell-based. The conditions noted are these: ht-1080, 24 h. (In general: A western blot detects proteins with antibodies after separation by electrophoresis.)
In data set [2] the test system is A-431. Put plainly: Antiproliferative activity against human A431 cells assessed as reduction in cell viability incubated for 72 hrs by MTT assay. It is filed as functional, cell-based. The conditions noted are these: A-431, 72 h. (In general: Tetrazolium assays rely on reduction of a dye to a coloured formazan, in cell work by metabolically active cells.)
The test system of data set [3] is A549. Put plainly: Antiproliferative activity against human A549 cells assessed as reduction in cell viability incubated for 72 hrs by MTT assay. It is filed as functional, cell-based. The settings on record: A549, 72 h.
The subject of data set [4] is MCF7. Kind of data set: Antiproliferative activity against human MCF7 cells assessed as reduction in cell viability incubated for 72 hrs by MTT assay. Format: functional, cell-based. The conditions noted are these: MCF7, 72 h.
Data set [5] has as its system NEC8. Put plainly: Antiproliferative activity against human NEC8 cells assessed as reduction in cell viability incubated for 72 hrs by MTT assay. It is filed as functional, cell-based. The settings on record: NEC8, 72 h.
In data set [6] the test system is PC-3. Put plainly: Antiproliferative activity against human PC3 cells assessed as reduction in cell viability incubated for 72 hrs by MTT assay. The settings on record: PC-3, 72 h. It is filed as functional, cell-based.
In data set [7] the test system is PANC-1. Put plainly: Antiproliferative activity against human PANC1 cells assessed as reduction in cell viability incubated for 72 hrs by MTT assay. It is filed as functional, cell-based. The settings on record: PANC-1, 72 h.
The subject of data set [8] is HT-1080. Put plainly: Induction of vacuole formation in human HT1080 cells at 10 uM incubated for 24 hrs. Format: functional, cell-based.
Data set [9] deals with SK-MEL-28. Kind of data set: Antiproliferative activity against human SK-MEL-28 cells assessed as reduction in cell viability incubated for 72 hrs by MTT assay. It is filed as functional, cell-based. The conditions noted are these: SK-MEL-28, 72 h.
Data set [10] deals with T1, Serine/threonine-protein kinase AKT (Homo sapiens) (UniProt P31751+Q9Y243+P31749). Put plainly: Inhibition of Akt signaling pathway in human HT1080 cells assessed as fold change in phosphorylated Akt level at 10 uM incubated for 24 hrs by immunoblot assay (reference value: 1). The conditions noted are these: HT-1080. It is filed as cell-based.
Data set [11] can be described thus: Antiproliferative activity against human ES2 cells assessed as reduction in cell viability incubated for 72 hrs by MTT assay. The conditions noted are these: ES-2, 72 h. It is filed as functional, cell-based.
The test system of data set [12] is HT-29. Kind of data set: Antiproliferative activity against human HT-29 cells assessed as reduction in cell viability incubated for 72 hrs by MTT assay. The settings on record: HT-29, 72 h. Format: functional, cell-based.
The target of data set [13] is T1, Serine/threonine-protein kinase AKT (Homo sapiens). Put plainly: Inhibition of Akt signaling pathway in human HT1080 cells assessed as fold change in phosphorylated 70S6K level at 10 uM incubated for 24 hrs by immunoblot assay (reference value: 1). Format: cell-based. The settings on record: HT-1080.
In data set [14] the test system is HT-1080. Kind of data set: Antiproliferative activity against human HT1080 cells assessed as reduction in cell viability incubated for 72 hrs by MTT assay. It is filed as functional, cell-based. The settings on record: HT-1080, 72 h.
Data set [15] relates to MCF7. Put plainly: Effect on HER2 mRNA expression in human MCF7 cells at 10 uM incubated for 24 hrs by qRT-PCR analysis. Format: functional, cell-based. On the technique in general: In qPCR the cycle at which signal appears reflects the starting amount.
Data set [16] concerns the target Receptor tyrosine-protein kinase erbB-2 (Homo sapiens) (UniProt P04626). Put plainly: Induction of HER2 destabilization in human MCF7 cells assessed as half life at 10 uM measured up to 24 hrs by immunoblotting assay (Rvb > 24 hrs). Format: cell-based.
In data set [17] the target is T1, Serine/threonine-protein kinase AKT (Homo sapiens). Kind of data set: Inhibition of Akt signaling pathway in human HT1080 cells assessed as reduction in phosphorylated Akt level incubated for 12 hrs by immunoblot assay. The settings on record: HT-1080. It is filed as cell-based.
Data set [18] has the same target. Kind of data set: Inhibition of Akt signaling pathway in human HT1080 cells assessed as fold change in phosphorylated Akt level at 0.01 uM incubated for 12 hrs by immunoblot assay (reference value: 1). Format: cell-based. The settings on record: HT-1080.
Data set [19] concerns the target Heat shock protein HSP90 (Homo sapiens) (UniProt P07900+P08238). Kind of data set: Inhibition of HSP90 chaperone activity in human HeLa cells assessed as reduction in denatured luciferase refolding at 100 uM incubated for 60 mins by luciferase refolding assay. It is filed as cell-based.
In data set [20] the target is Luciferin 4-monooxygenase (Photinus pyralis) (UniProt P08659). Put plainly: Effect on firefly luciferase activity at 100 uM incubated for 60 mins by luciferase assay system.
Data set [21] relates to MCF7. Put plainly: Effect on HSP90 level in human MCF7 cells at 10 uM incubated for 24 hrs by immunoblotting assay (reference value: 1). Format: ADME, cell-based. The settings on record: mcf7, 24 h.
In data set [22] the target is T1, Serine/threonine-protein kinase AKT (Homo sapiens). Kind of data set: Inhibition of Akt signaling pathway in human HT1080 cells assessed as fold change in phosphorylated Akt level at 0.1 uM incubated for 12 hrs by immunoblot assay (reference value: 1). Format: cell-based. The settings on record: HT-1080.
Data set [23] shares this target. Put plainly: Inhibition of Akt signaling pathway in human HT1080 cells assessed as fold change in phosphorylated Akt level at 1 uM incubated for 12 hrs by immunoblot assay (reference value: 1). It is filed as cell-based. The conditions noted are these: HT-1080.
Data set [24] has the same target. Kind of data set: Inhibition of Akt signaling pathway in human HT1080 cells assessed as fold change in phosphorylated Akt level at 10 uM incubated for 12 hrs by immunoblot assay (reference value: 1). The settings on record: HT-1080. It is filed as cell-based.

T1 sequence (P31749 whole entry, looked up): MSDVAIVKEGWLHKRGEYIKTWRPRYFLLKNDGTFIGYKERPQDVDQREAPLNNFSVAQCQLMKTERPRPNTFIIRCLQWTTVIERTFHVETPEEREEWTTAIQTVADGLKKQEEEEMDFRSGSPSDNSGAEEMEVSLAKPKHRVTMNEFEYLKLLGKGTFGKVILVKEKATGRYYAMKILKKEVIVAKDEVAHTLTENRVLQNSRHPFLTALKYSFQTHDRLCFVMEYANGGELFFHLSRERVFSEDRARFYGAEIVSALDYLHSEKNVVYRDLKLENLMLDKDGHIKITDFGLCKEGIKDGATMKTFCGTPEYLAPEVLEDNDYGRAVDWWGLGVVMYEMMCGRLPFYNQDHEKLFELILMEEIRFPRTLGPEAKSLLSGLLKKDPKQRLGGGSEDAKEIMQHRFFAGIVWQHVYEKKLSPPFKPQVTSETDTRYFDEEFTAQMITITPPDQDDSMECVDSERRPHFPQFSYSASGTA
T1 sequence (P31751 whole entry, looked up): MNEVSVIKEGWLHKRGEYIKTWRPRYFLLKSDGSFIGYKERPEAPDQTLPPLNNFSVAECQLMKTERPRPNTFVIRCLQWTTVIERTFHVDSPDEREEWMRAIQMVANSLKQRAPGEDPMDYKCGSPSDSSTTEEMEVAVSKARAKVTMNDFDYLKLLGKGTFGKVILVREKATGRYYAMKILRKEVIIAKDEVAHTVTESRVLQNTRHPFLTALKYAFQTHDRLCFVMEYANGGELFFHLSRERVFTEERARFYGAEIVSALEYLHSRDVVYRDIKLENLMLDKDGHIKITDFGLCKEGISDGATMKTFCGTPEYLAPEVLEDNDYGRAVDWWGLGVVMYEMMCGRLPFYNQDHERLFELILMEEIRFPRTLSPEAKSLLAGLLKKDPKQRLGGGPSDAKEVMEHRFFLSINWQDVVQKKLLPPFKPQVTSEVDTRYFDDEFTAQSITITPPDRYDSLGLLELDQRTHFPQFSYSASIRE
T1 sequence (Q9Y243 whole entry, looked up): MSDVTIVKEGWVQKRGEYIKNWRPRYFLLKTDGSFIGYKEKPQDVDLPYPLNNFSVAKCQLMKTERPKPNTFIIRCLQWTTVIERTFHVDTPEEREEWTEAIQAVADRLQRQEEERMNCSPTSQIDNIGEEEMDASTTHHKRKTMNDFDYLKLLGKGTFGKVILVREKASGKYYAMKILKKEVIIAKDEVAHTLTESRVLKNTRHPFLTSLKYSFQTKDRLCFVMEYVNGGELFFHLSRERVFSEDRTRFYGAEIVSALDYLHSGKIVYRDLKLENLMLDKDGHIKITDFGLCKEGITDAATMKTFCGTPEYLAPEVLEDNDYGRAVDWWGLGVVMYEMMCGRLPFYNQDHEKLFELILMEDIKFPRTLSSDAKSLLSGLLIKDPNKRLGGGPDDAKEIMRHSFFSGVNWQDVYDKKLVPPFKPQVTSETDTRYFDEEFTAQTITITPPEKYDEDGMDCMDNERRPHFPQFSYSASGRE
Chain of Luciferin 4-monooxygenase (Photinus pyralis) (P08659 whole entry): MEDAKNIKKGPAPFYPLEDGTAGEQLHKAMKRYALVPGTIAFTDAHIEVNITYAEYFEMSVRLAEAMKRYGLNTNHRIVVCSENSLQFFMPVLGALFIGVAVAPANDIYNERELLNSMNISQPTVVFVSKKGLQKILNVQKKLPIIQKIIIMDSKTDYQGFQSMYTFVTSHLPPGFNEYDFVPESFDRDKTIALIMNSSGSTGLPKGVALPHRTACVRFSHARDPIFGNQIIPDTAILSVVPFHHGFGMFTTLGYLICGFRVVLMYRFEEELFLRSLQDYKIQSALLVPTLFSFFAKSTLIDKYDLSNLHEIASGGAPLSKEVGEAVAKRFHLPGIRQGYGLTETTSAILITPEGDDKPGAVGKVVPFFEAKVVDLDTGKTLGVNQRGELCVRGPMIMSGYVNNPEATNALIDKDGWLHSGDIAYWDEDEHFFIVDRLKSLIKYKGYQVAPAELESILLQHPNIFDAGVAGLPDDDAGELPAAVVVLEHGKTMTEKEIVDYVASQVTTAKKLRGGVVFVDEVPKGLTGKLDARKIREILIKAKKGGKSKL
Chain of Receptor tyrosine-protein kinase erbB-2 (Homo sapiens) (P04626 whole entry): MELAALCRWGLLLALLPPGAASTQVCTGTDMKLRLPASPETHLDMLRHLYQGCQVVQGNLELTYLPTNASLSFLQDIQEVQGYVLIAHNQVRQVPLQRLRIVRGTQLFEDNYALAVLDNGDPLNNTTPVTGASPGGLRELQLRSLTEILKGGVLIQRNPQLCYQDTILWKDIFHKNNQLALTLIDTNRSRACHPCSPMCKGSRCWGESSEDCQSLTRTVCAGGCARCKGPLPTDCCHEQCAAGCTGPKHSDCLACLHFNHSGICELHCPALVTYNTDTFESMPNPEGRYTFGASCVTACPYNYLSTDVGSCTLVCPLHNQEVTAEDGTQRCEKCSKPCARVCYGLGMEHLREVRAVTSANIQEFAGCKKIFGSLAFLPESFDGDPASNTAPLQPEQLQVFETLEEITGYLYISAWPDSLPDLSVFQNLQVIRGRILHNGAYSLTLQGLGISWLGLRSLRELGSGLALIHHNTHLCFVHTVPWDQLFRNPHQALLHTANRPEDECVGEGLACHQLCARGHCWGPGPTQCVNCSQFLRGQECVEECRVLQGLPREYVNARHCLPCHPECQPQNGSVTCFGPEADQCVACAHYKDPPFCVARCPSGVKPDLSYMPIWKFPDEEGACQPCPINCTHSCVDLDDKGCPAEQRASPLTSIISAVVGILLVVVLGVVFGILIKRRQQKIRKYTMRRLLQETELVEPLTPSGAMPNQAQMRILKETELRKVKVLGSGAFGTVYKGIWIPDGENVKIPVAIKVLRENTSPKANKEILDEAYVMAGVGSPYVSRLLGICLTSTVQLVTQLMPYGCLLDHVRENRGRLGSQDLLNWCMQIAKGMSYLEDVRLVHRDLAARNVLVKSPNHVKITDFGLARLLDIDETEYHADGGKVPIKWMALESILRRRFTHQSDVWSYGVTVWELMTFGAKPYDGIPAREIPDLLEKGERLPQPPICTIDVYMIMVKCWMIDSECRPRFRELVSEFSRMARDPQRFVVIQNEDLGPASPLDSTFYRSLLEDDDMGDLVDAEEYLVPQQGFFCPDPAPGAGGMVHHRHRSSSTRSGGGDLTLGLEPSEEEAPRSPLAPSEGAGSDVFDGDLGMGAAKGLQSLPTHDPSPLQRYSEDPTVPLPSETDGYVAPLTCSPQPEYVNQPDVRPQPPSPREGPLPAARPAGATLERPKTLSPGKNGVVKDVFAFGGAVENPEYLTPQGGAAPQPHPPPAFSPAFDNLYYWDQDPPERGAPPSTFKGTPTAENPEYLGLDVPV

Broadly, the IC50 is the concentration that inhibits the measured activity by half. For `C=C(I)CC[C@H]1O[C@@]1(C)[C@@H](/C=C/[C@](C)(CC=O)CCC=C(C)C)OC(=O)C=C(C)C`, the “fold change (FC)” value in [1] was determined as 0.92; in [10], 0.91; in data set [13] it was 1.15. Further, the IC50 in data set [2] was 20 µM; in [3] it was over 20 µM; in data set [4], over 20 µM; in data set [5], 11 µM; in [6], over 20 µM; in [7], 5.1 µM. Moreover, the IC50 in data set [9] was over 20 µM; in [11] it was over 20 µM; in data set [12], over 20 µM; in [14] it was 18 µM. Besides, in data set [8], the outcome was inactive.

As for `CC(C)=CCC[C@]1(C)/C=C/[C@@H](OC(=O)C=C(C)C)[C@]2(C)O[C@@H]2CC/C(C=O)=C\C1`, the “fold change (FC)” value turned out to be 0.85 in data set [1], 1.05 in [10] and 1.11 in data set [13]. For the same compound, the IC50 in data set [2] is 13 µM; in [3], 11 µM; in data set [4] it was 12 µM; in [5], 12 µM; in data set [6], over 20 µM; in [7], 2.7 µM. For the same compound, the IC50 was over 20 µM in [9], 7.5 µM in data set [11], 7.8 µM in data set [12] and 18 µM in [14]. In addition, in data set [8], the outcome was inactive.

With `C=C1CC[C@H]2O[C@@]2(C)[C@H](OC(=O)C=C(C)C)/C=C/[C@@](C)(CCC=C(C)C)CC1=O`, the “fold change (FC)” value in data set [1] was found to be 0.8; in [18] it was 0.99; in [10], 0.11; in data set [21], 0.98; in [22] it was 0.8; in [23], 0.63. Also, the values for the fold change (FC) in [13] and in data set [24] were 0.08 and 0.38, respectively. Besides, the half-inhibitory concentration (IC50) in [2] turned out to be 0.89 µM; in data set [3], 4.4 µM; in data set [4], 3.5 µM; in [5], 3 µM; in data set [6], 4.3 µM; in [7], 3.5 µM. The concentration for half-maximal inhibition (IC50) in data set [9] turned out to be 0.97 µM; in data set [11], 4.3 µM; in [12] it was 2 µM; in [14] it was 1.2 µM. The result in data set [15] and in [20] was inactive. Besides, the T1/2 in data set [16] was 15 h. Also, the inhibition result in data set [17] was “Dose-dependent effect”. Moreover, the outcome in data set [8] was Active. Also, the inhibition result in [19] is “Active”.

Take `CC(C)=CCC[C@]1(C)/C=C/[C@@H](OC(=O)C=C(C)C)[C@]2(C)O[C@@H]2CC/C(CO)=C\C1`: the “fold change (FC)” value in data set [1] amounted to 1.08; in [10] it was 0.98; in data set [13] it was 1.2. The IC50 in data set [2] was 16 µM; in data set [3], 8.3 µM; in data set [4] it was 15 µM; in data set [5], 8.4 µM; in data set [6], over 20 µM; in data set [7] it was 0.025 µM. For the same compound, the half-maximal inhibitory concentration (IC50) was over 20 µM in [9], 2.9 µM in data set [11], 6.8 µM in [12] and over 20 µM in data set [14]. Moreover, the outcome in data set [8] was inactive.

As for `COC1=C2C[C@@H](C)C[C@H](OC)[C@H](O)[C@@H](C)/C=C(\C)[C@H](OC(N)=O)[C@@H](OC)/C=C\C=C(/C)C(=O)NC(=CC1=O)C2=O` [GELDANAMYCIN], the result in [15] was inactive. Besides, the “fold change (FC)” value in data set [21] is given as 1.01.

For `C=C1CC[C@H]2O[C@@]2(C)[C@H](OC(=O)C=C(C)C)/C=C/[C@@](C)(CCC=C(C)C)C[C@H]1O`, the “fold change (FC)” value worked out at 0.98 in [1], 0.95 in data set [10] and 1.1 in data set [13]. Further, the concentration for half-maximal inhibition (IC50) in [2] is over 20 µM; in data set [3] it was over 20 µM; in data set [4], over 20 µM; in data set [5], 11 µM; in data set [6], over 20 µM; in data set [7] it was over 20 µM. Moreover, the half-maximal inhibitory concentration (IC50) in data set [9], in data set [11], in data set [12] and in data set [14] was over 20 µM throughout. In addition, in [8], the result was inactive.

Source of the values: ChEMBL document CHEMBL4610012, “Identification of vibsanin A analog as a novel HSP90 inhibitor” (Bioorg Med Chem, 2020).
